Oligonucleotides are written 5' to 3', each unit as a sugar letter and its base; * is a phosphorothioate linkage, no mark a phosphodiester; rarer units and linkages stand in square brackets, end groups in braces. Plain capitals give the bases only. e = 2'-O-(2-methoxyethyl) (MOE); [5mC] = 5-methylcytosine; d = 2'-deoxy (DNA)
The sequences below were run on mouse glucose-6-phosphatase translocase mRNA (assay: Antisense inhibition of mouse glucose-6-phosphatase translocase mRNA in primary mouse hepatocytes, 50 nM (Table 5)). Settings: 50 nM oligonucleotide, mRNA by real-time PCR, normalized with RIBOGREEN.
Format: cell-based
Description: Primary mouse hepatocytes were prepared from CD-1 mice purchased from Charles River Labs. Primary mouse hepatocytes were routinely cultured in Hepatocyte Attachment Media supplemented with 10% fetal bovine serum (Invitrogen Life Technologies, Carlsbad, Calif.), 250 nM dexamethasone, and 10 nM bovine insulin (Sigma-Aldrich, St. Louis, Mo.). Cells were seeded into 96-well plates (Falcon-Primaria #353872, BD Biosciences, Bedford, Mass.) at a density of approximately 4,000-6,000 cells/well for use in oligomeric compound transfection experiments.
Quantitation of glucose 6-phosphatase translocase mRNA levels was accomplished by real-time quantitative PCR using the ABI PRISM™ 7600, 7700, or 7900 Sequence Detection System (PE-Applied Biosystems, Foster City, Calif.) according to manufacturer's instructions.
Prior to quantitative PCR analysis, primer-probe sets specific to the target gene being measured were evaluated for their ability to be “multiplexed” with a GAPDH amplification reaction. After isolation the RNA is subjected to sequential reverse transcriptase (RT) reaction and real-time PCR, both of which are performed in the same well. RT and PCR reagents were obtained from Invitrogen Life Technologies (Carlsbad, Calif.). […] The RT reaction was carried out by incubation for 30 minutes at 48° C. Following a 10 minute incubation at 95° C. to activate the PLATINUM® Taq, 40 cycles of a two-step PCR protocol were carried out: 95° C. for 15 seconds (denaturation) followed by 60° C. for 1.5 minutes (annealing/extension).
Gene target quantities obtained by RT, real-time PCR were normalized using either the expression level of GAPDH, a gene whose expression is constant, or by quantifying total RNA using RiboGreen™ (Molecular Probes, Inc. Eugene, Oreg.). GAPDH expression was quantified by RT, real-time PCR, by being run simultaneously with the target, multiplexing, or separately. Total RNA was quantified using RiboGreen™ RNA quantification reagent (Molecular Probes, Inc. Eugene, Oreg.).
A series of oligomeric compounds was designed to target different regions of mouse glucose-6-phosphatase translocase, using published sequences cited in Table 1. All compounds in Table 5 are chimeric oligonucleotides (“gapmers”) 20 nucleotides in length, composed of a central “gap” region consisting of 10 2′-deoxynucleotides, which is flanked on both sides (5′ and 3′) by five-nucleotide “wings”. The wings are composed of 2′-O-(2-methoxyethyl) nucleotides, also known as 2′-MOE nucleotides. The internucleoside (backbone) linkages are phosphorothioate throughout the oligonucleotide. All cytidine residues are 5-methylcytidines. The compounds were analyzed for their effect on gene target mRNA levels by quantitative real-time PCR as described in other examples herein, using the following primer-probe set designed to hybridize to mouse glucose-6-phosphatase translocase: • forward primer: […] (SEQ ID NO: 66) • reverse primer: CCATCCCAGCCATCATGAG (SEQ ID NO: 67) and the PCR probe was: FAM-[…]-TAMRA (SEQ ID NO: 68) where FAM is the fluorescent reporter dye and TAMRA is the quencher dye. Mouse target gene quantities were normalized by quantifying total RNA using RIBOGREEN™.
Data are from experiments in which primary mouse hepatocytes were treated with 50 nM of the antisense oligonucleotides of the present invention. A reduction in expression is expressed as percent inhibition in Table 5. If present, “N.D.” indicates “not determined”. The target regions to which these oligomeric compounds are inhibitory are herein referred to as “validated target segments.”

Sequence	% Inhib
AAACGTAAAGGTTCTGTGTT (eA*eA*eA*e[5mC]*eG*dT*dA*dA*dA*dG*dG*dT*dT*d[5mC]*dT*eG*eT*eG*eT*eT; antisense) [ISIS 148990]	16%
AACCAGGATCCAGATCTTGG (eA*eA*e[5mC]*e[5mC]*eA*dG*dG*dA*dT*d[5mC]*d[5mC]*dA*dG*dA*dT*e[5mC]*eT*eT*eG*eG; antisense) [ISIS 148976]	48%
AAGGCCTCCGACCTCGAGGG (eA*eA*eG*eG*e[5mC]*d[5mC]*dT*d[5mC]*d[5mC]*dG*dA*d[5mC]*d[5mC]*dT*d[5mC]*eG*eA*eG*eG*eG; antisense) [ISIS 148967]	34%
AAGTCGGTTTGCCCTCTATA (eA*eA*eG*eT*e[5mC]*dG*dG*dT*dT*dT*dG*d[5mC]*d[5mC]*d[5mC]*dT*e[5mC]*eT*eA*eT*eA; antisense) [ISIS 149007]	64%
AATGCTTCCTACAAGGCCTC (eA*eA*eT*eG*e[5mC]*dT*dT*d[5mC]*d[5mC]*dT*dA*d[5mC]*dA*dA*dG*eG*e[5mC]*e[5mC]*eT*e[5mC]; antisense) [ISIS 148968]	26%
ACAAAGGAGAAGGTTTTGCG (eA*e[5mC]*eA*eA*eA*dG*dG*dA*dG*dA*dA*dG*dG*dT*dT*eT*eT*eG*e[5mC]*eG; antisense) [ISIS 148943]	47%
ACAACTGTGCTGGCTCCACA (eA*e[5mC]*eA*eA*e[5mC]*dT*dG*dT*dG*d[5mC]*dT*dG*dG*d[5mC]*dT*e[5mC]*e[5mC]*eA*e[5mC]*eA; antisense) [ISIS 148982]	69%
ACAGAGACAGCCCTGCCTTC (eA*e[5mC]*eA*eG*eA*dG*dA*d[5mC]*dA*dG*d[5mC]*d[5mC]*d[5mC]*dT*dG*e[5mC]*e[5mC]*eT*eT*e[5mC]; antisense) [ISIS 148970]	78%
ACAGGGCCAGTGTGCTGCGC (eA*e[5mC]*eA*eG*eG*dG*d[5mC]*d[5mC]*dA*dG*dT*dG*dT*dG*d[5mC]*eT*eG*e[5mC]*eG*e[5mC]; antisense) [ISIS 148958]	50%
ACCCACAAGGGCGGACTGCC (eA*e[5mC]*e[5mC]*e[5mC]*eA*d[5mC]*dA*dA*dG*dG*dG*d[5mC]*dG*dG*dA*e[5mC]*eT*eG*e[5mC]*e[5mC]; antisense) [ISIS 148964]	0%
AGACCACAAGGTAGCCAGTG (eA*eG*eA*e[5mC]*e[5mC]*dA*d[5mC]*dA*dA*dG*dG*dT*dA*dG*d[5mC]*e[5mC]*eA*eG*eT*eG; antisense) [ISIS 148961]	36%
AGCCATCATGAGTAGCAATA (eA*eG*e[5mC]*e[5mC]*eA*dT*d[5mC]*dA*dT*dG*dA*dG*dT*dA*dG*e[5mC]*eA*eA*eT*eA; antisense) [ISIS 148973]	35%
AGCCCCTGTGCCAGACCATT (eA*eG*e[5mC]*e[5mC]*e[5mC]*d[5mC]*dT*dG*dT*dG*d[5mC]*d[5mC]*dA*dG*dA*e[5mC]*e[5mC]*eA*eT*eT; antisense) [ISIS 148953]	58%
AGGGTATTCATGAGAGTGGT (eA*eG*eG*eG*eT*dA*dT*dT*d[5mC]*dA*dT*dG*dA*dG*dA*eG*eT*eG*eG*eT; antisense) [ISIS 149006]	36%
AGGTTCTGTGTTAGCCAGAG (eA*eG*eG*eT*eT*d[5mC]*dT*dG*dT*dG*dT*dT*dA*dG*d[5mC]*e[5mC]*eA*eG*eA*eG; antisense) [ISIS 148989]	58%
ATAGGCCGTGGCGAGGGTTC (eA*eT*eA*eG*eG*d[5mC]*d[5mC]*dG*dT*dG*dG*d[5mC]*dG*dA*dG*eG*eG*eT*eT*e[5mC]; antisense) [ISIS 148972]	36%
ATCTTGGGTGAGTCACTGGT (eA*eT*e[5mC]*eT*eT*dG*dG*dG*dT*dG*dA*dG*dT*d[5mC]*dA*e[5mC]*eT*eG*eG*eT; antisense) [ISIS 148975]	42%
ATGAGAGGTTCCACACAAGT (eA*eT*eG*eA*eG*dA*dG*dG*dT*dT*d[5mC]*d[5mC]*dA*d[5mC]*dA*e[5mC]*eA*eA*eG*eT; antisense) [ISIS 148979]	54%

Sequence	% Inhib
ATGGAGTCTAGAACCAAACG (eA*eT*eG*eG*eA*dG*dT*d[5mC]*dT*dA*dG*dA*dA*d[5mC]*d[5mC]*eA*eA*eA*e[5mC]*eG; antisense) [ISIS 148995]	56%
CACAGAAACGTAAAGGTTCT (e[5mC]*eA*e[5mC]*eA*eG*dA*dA*dA*d[5mC]*dG*dT*dA*dA*dA*dG*eG*eT*eT*e[5mC]*eT; antisense) [ISIS 148991]	22%
CACAGACTCTTGACTGCTCC (e[5mC]*eA*e[5mC]*eA*eG*dA*d[5mC]*dT*d[5mC]*dT*dT*dG*dA*d[5mC]*dT*eG*e[5mC]*eT*e[5mC]*e[5mC]; antisense) [ISIS 148939]	41%
CACGGCTCCCAAAACCAGGA (e[5mC]*eA*e[5mC]*eG*eG*d[5mC]*dT*d[5mC]*d[5mC]*d[5mC]*dA*dA*dA*dA*d[5mC]*e[5mC]*eA*eG*eG*eA; antisense) [ISIS 148977]	9%
CAGAGCGATCTCATCCACCA (e[5mC]*eA*eG*eA*eG*d[5mC]*dG*dA*dT*d[5mC]*dT*d[5mC]*dA*dT*d[5mC]*e[5mC]*eA*e[5mC]*e[5mC]*eA; antisense) [ISIS 148944]	35%
CAGAGGGTCCAGATTTCGGA (e[5mC]*eA*eG*eA*eG*dG*dG*dT*d[5mC]*d[5mC]*dA*dG*dA*dT*dT*eT*e[5mC]*eG*eG*eA; antisense) [ISIS 148959]	−6%
CCAAACTGGGATGGCTCAAA (e[5mC]*e[5mC]*eA*eA*eA*d[5mC]*dT*dG*dG*dG*dA*dT*dG*dG*d[5mC]*eT*e[5mC]*eA*eA*eA; antisense) [ISIS 148954]	48%
CCAAACTTCCAGCCAGGTTC (e[5mC]*e[5mC]*eA*eA*eA*d[5mC]*dT*dT*d[5mC]*d[5mC]*dA*dG*d[5mC]*d[5mC]*dA*eG*eG*eT*eT*e[5mC]; antisense) [ISIS 148956]	27%
CCACAGGCCATTAATACTCA (e[5mC]*e[5mC]*eA*e[5mC]*eA*dG*dG*d[5mC]*d[5mC]*dA*dT*dT*dA*dA*dT*eA*e[5mC]*eT*e[5mC]*eA; antisense) [ISIS 148999]	45%
CCAGTGGACAGCACCCAGAG (e[5mC]*e[5mC]*eA*eG*eT*dG*dG*dA*d[5mC]*dA*dG*d[5mC]*dA*d[5mC]*d[5mC]*e[5mC]*eA*eG*eA*eG; antisense) [ISIS 148960]	28%
CCATTAAGAAACCAAGGAGC (e[5mC]*e[5mC]*eA*eT*eT*dA*dA*dG*dA*dA*dA*d[5mC]*d[5mC]*dA*dA*eG*eG*eA*eG*e[5mC]; antisense) [ISIS 148952]	20%
CCGTAGCCTTGGGCTGCCAT (e[5mC]*e[5mC]*eG*eT*eA*dG*d[5mC]*d[5mC]*dT*dT*dG*dG*dG*d[5mC]*dT*eG*e[5mC]*e[5mC]*eA*eT; antisense) [ISIS 148941]	62%
CCGTGTCCTGCCAGTAAGGC (e[5mC]*e[5mC]*eG*eT*eG*dT*d[5mC]*d[5mC]*dT*dG*d[5mC]*d[5mC]*dA*dG*dT*eA*eA*eG*eG*e[5mC]; antisense) [ISIS 148986]	55%
CCTAGGAGAAGAAGAAGGGT (e[5mC]*e[5mC]*eT*eA*eG*dG*dA*dG*dA*dA*dG*dA*dA*dG*dA*eA*eG*eG*eG*eT; antisense) [ISIS 148998]	21%
CGAGGGTTCCCATACAGAGA (e[5mC]*eG*eA*eG*eG*dG*dT*dT*d[5mC]*d[5mC]*d[5mC]*dA*dT*dA*d[5mC]*eA*eG*eA*eG*eA; antisense) [ISIS 148971]	88%
CGCCATGGCCCTGTCTGACA (e[5mC]*eG*e[5mC]*e[5mC]*eA*dT*dG*dG*d[5mC]*d[5mC]*d[5mC]*dT*dG*dT*d[5mC]*eT*eG*eA*e[5mC]*eA; antisense) [ISIS 148969]	24%
CGTCATCATTTTAAATAGAG (e[5mC]*eG*eT*e[5mC]*eA*dT*d[5mC]*dA*dT*dT*dT*dT*dA*dA*dA*eT*eA*eG*eA*eG; antisense) [ISIS 148994]	10%
